Experimental data taken from ChEMBL document CHEMBL1201862, “PubChem BioAssay data set” (2004).
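Five compound concentrations were applied to cells in 96-well plates for 48 hours; endpoints were derived by simple linear interpolation of the resulting dose-response curve. At the GI50, growth is halved.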 The source made the active and inactive calls. Rule as the data show it: active = GI50 up to about 1.1 µM and inactive = higher.

Assays:
Assay in all cases: inhibition of tumour cell growth, NCI panel, 48 h
SK-OV-3 = system: SK-OV-3
PC-3 = system: PC-3
COLO 205 = system: COLO 205
K562 = system: K562
MDA-N = system: MDA-N
BT-549 = system: BT-549
OVCAR-8 = system: OVCAR-8
MDA-MB-231 = system: MDA-MB-231
KM12 = system: KM12
MOLT-4 = system: MOLT-4
SF-268 = system: SF-268
NCI/ADR-RES = system: NCI/ADR-RES
Malme-3M = system: Malme-3M
LOX IMVI = system: LOX IMVI
ACHN = system: ACHN
HT-29 = system: HT-29
SK-MEL-5 = system: SK-MEL-5
TK-10 = system: TK-10
HCC 2998 = system: HCC 2998
RPMI-8226 = system: RPMI-8226
SK-MEL-2 = system: SK-MEL-2
MCF7 = system: MCF7
HOP-62 = system: HOP-62
SR = system: SR
SNB-75 = system: SNB-75
SK-MEL-28 = system: SK-MEL-28
UO-31 = system: UO-31
HOP-92 = system: HOP-92
IGROV-1 = system: IGROV-1
T47D = system: T47D
MDA-MB-435 = system: MDA-MB-435
SF-539 = system: SF-539
HCT-15 = system: HCT-15
SN12C = system: SN12C
UACC-257 = system: UACC-257
OVCAR-4 = system: OVCAR-4
NCI-H460 = system: NCI-H460
M14 = system: M14
A498 = system: A498
U-251 = system: U-251
OVCAR-5 = system: OVCAR-5
RXF 393 = system: RXF 393
DU-145 = system: DU-145
SF-295 = system: SF-295
UACC-62 = system: UACC-62
786-0 = system: 786-0
Hs-578T = system: Hs-578T
EKVX = system: EKVX
A549 = system: A549
NCI-H23 = system: NCI-H23
NCI-H522 = system: NCI-H522
CCRF-CEM = system: CCRF-CEM
SNB-19 = system: SNB-19
SW-620 = system: SW-620
NCI-H226 = system: NCI-H226
OVCAR-3 = system: OVCAR-3
HL-60 = system: HL-60
CAKI-1 = system: CAKI-1
HCT-116 = system: HCT-116

CCOC(=O)C1=CN(C(=O)c2ccccc2)CCC1Cc1ccccc1 (centres undefined)
GI50 (SK-OV-3): 31 µM (inactive)
GI50 (PC-3): 17.7 µM (inactive)
GI50 (COLO 205): 18.9 µM (inactive)
GI50 (K562): 17.6 µM (inactive)
GI50 (MDA-N): 19.5 µM (inactive)
GI50 (BT-549): 25.8 µM (inactive)
GI50 (OVCAR-8): 24.4 µM (inactive)
GI50 (MDA-MB-231): 17.7 µM (inactive)
GI50 (KM12): 26.1 µM (inactive)
GI50 (MOLT-4): 13.5 µM (inactive)
GI50 (SF-268): 32.9 µM (inactive)
GI50 (NCI/ADR-RES): 20 µM (inactive)
GI50 (Malme-3M): 25.4 µM (inactive)
GI50 (LOX IMVI): 18 µM (inactive)
GI50 (ACHN): 20.6 µM (inactive)
GI50 (HT-29): 17 µM (inactive)
GI50 (SK-MEL-5): 15 µM (inactive)
GI50 (TK-10): 22.9 µM (inactive)
GI50 (HCC 2998): 17.6 µM (inactive)
GI50 (RPMI-8226): 13.5 µM (inactive)
GI50 (SK-MEL-2): 16.8 µM (inactive)
GI50 (MCF7): 23.1 µM (inactive)
GI50 (HOP-62): 30 µM (inactive)
GI50 (SR): 12.5 µM (inactive)
GI50 (SNB-75): 18.2 µM (inactive)
GI50 (SK-MEL-28): 22.9 µM (inactive)
GI50 (UO-31): 33 µM (inactive)
GI50 (HOP-92): 14.7 µM (inactive)
GI50 (IGROV-1): 27.3 µM (inactive)
GI50 (T47D): 12.5 µM (inactive)
GI50 (MDA-MB-435): 20.4 µM (inactive)
GI50 (SF-539): 21.5 µM (inactive)
GI50 (HCT-15): 21.3 µM
GI50 (SN12C): 23.1 µM (inactive)
GI50 (UACC-257): 15.8 µM (inactive)
GI50 (OVCAR-4): 24.5 µM (inactive)
GI50 (NCI-H460): 17.5 µM (inactive)
GI50 (M14): 18.6 µM (inactive)
GI50 (A498): 7.87 µM (inactive)
GI50 (U-251): 21.1 µM (inactive)
GI50 (OVCAR-5): 44.6 µM (inactive)
GI50 (RXF 393): 18.1 µM (inactive)
GI50 (DU-145): 40.9 µM (inactive)
GI50 (SF-295): 29.1 µM (inactive)
GI50 (UACC-62): 13.7 µM (inactive)
GI50 (786-0): 28.6 µM (inactive)
GI50 (Hs-578T): 20.5 µM (inactive)
GI50 (EKVX): 24 µM (inactive)
GI50 (A549): 29.2 µM (inactive)
GI50 (NCI-H23): 29 µM (inactive)
GI50 (NCI-H522): 16.2 µM (inactive)
GI50 (CCRF-CEM): 18 µM (inactive)
GI50 (SNB-19): 34.4 µM (inactive)
GI50 (SW-620): 26 µM (inactive)
GI50 (NCI-H226): 43.6 µM (inactive)
GI50 (OVCAR-3): 25.9 µM (inactive)
GI50 (HL-60): 9.04 µM (inactive)
GI50 (CAKI-1): 24.4 µM (inactive)
GI50 (HCT-116): 23.1 µM (inactive)
